Measured values reported in BindingDB's records for doi:10.1021/acs.jmedchem.6b01851 (Amgen, 2017).

Biological target: Sodium channel protein type 5 subunit alpha (Homo sapiens, UniProt Q14524)
Assay: Inhibition of human Nav1.5 expressed in HEK293 cells assessed as reduction in peak inward current by ionworks quattro electrophysiology assay

Chain of Sodium channel protein type 5 subunit alpha (Q14524 whole entry): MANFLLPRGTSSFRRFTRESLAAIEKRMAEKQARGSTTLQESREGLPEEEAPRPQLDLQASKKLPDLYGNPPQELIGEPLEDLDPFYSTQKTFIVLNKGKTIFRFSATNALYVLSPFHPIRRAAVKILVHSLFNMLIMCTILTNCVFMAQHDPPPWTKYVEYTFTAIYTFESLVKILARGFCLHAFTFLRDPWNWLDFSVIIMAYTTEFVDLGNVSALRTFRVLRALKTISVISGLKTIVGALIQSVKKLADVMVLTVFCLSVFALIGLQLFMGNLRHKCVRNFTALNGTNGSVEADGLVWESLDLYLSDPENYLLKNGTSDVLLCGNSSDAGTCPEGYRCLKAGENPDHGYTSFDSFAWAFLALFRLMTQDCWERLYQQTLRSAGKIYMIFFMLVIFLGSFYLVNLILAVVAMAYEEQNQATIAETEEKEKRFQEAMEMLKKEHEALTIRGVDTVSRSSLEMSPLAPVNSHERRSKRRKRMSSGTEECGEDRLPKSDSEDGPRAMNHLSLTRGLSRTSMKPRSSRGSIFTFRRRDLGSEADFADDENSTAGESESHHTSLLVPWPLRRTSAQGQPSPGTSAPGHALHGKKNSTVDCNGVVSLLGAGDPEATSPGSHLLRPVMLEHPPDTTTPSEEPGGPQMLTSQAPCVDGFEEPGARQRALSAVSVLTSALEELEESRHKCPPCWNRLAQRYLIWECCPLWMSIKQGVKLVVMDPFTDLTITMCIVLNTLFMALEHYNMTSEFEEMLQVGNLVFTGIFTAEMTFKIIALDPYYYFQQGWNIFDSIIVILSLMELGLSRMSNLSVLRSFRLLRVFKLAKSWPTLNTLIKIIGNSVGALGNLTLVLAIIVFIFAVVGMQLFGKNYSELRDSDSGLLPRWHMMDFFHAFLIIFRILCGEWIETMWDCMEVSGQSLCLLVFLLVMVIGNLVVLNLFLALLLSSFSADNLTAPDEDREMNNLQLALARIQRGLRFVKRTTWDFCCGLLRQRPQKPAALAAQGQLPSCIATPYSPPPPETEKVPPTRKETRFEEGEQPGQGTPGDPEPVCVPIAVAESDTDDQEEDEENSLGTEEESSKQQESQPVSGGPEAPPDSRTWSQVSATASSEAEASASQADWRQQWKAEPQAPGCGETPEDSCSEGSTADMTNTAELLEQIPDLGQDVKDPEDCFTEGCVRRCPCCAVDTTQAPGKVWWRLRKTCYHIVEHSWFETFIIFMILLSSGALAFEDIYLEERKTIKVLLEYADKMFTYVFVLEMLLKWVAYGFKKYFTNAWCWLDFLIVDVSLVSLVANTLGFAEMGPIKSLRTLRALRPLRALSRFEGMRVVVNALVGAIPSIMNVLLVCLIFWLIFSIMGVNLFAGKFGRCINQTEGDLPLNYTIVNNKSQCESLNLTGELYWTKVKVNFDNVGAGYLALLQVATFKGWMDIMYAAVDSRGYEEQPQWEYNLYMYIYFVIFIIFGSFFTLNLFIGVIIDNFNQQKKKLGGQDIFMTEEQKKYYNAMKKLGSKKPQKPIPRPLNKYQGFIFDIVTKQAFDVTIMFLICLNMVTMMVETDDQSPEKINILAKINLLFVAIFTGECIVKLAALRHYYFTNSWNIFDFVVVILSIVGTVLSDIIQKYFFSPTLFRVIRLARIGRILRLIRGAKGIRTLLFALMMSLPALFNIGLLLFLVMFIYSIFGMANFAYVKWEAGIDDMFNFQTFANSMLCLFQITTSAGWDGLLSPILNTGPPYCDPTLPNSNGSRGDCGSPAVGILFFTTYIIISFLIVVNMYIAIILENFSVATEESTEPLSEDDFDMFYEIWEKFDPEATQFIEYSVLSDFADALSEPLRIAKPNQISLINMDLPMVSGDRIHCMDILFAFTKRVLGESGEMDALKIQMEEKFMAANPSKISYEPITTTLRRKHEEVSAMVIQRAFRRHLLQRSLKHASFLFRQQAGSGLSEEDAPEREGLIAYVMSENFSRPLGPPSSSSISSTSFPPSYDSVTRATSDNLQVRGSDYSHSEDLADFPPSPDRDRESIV

Structure (SMILES) | IC50
COc1cc(-c2cccc(F)c2)c(Cl)cc1-c1nn(C)c(=O)c2cc(S(=O)(=O)Nc3ccon3)ccc12 [1-(2-chloro-3'-fluoro-5-methoxy-4-biphenylyl)-N-3-isoxazolyl-3-methyl-4-oxo-3,4-dihydro-6-phthalazinesulfonamide] | > 10 µM
COc1cc(-c2cccc(F)c2)c(Cl)cc1-c1nccc2cc(S(=O)(=O)Nc3ncon3)ccc12 [1-(2-chloro-3'-fluoro-5-methoxy-4-biphenylyl)-N-1,2,4-oxadiazol-3-yl-6-isoquinolinesulfonamide] | > 10 µM
COc1cc(-c2cccc(Cl)c2)c(F)cc1-c1nccc2cc(S(=O)(=O)Nc3ccon3)ccc12 [1-(3'-chloro-2-fluoro-5-methoxy-4-biphenylyl)-N-3-isoxazolyl-6-isoquinolinesulfonamide] | > 10 µM
COc1cc(-c2cccc(F)c2)c(Cl)cc1-c1ncnc2cc(S(=O)(=O)Nc3ccon3)ccc12 [4-(2-chloro-3'-fluoro-5-methoxy-4-biphenylyl)-N-3-isoxazolyl-7-quinazolinesulfonamide] | > 10 µM
COc1cc(-c2cccc(F)c2)c(Cl)cc1-c1ncc(O)c2cc(S(=O)(=O)Nc3ccon3)ccc12 [1-(2-chloro-3'-fluoro-5-methoxy-4-biphenylyl)-4-hydroxy-N-3-isoxazolyl-6-isoquinolinesulfonamide] | > 10 µM
COc1cc(-c2cccc(F)c2)c(Cl)cc1-c1nccc2cc(S(=O)(=O)Nc3cccnn3)ccc12 [1-(2-chloro-3'-fluoro-5-methoxy-4-biphenylyl)-N-3-pyridazinyl-6-isoquinolinesulfonamide] | > 10 µM
